Laboratory results reported in patent US20220257531A1, “COMPOSITIONS AND METHODS FOR TREATMENT OF A FIBROTIC DISEASE” (Avexxin AS, priority 2017, published 2022).

Tested on: BLM-induced pulmonary fibrosis in C57BL/6J mice
Assay: Bleomycin (BLM)-induced pulmonary fibrosis model, Example 4
Type: in vivo
Text: The bleomycin model of idiopathic fibrosis (IPF) is a well-characterized and currently an extensively used animal model of Interstitial lung disease (ILD) due to its: i) ability to reproduce many aspects of the disease, ii) good reproducibility, and iii) ease of induction. Overall, studies using the bleomycin model have identified many of the cellular and molecular mechanisms now recognized as being important in pathogenesis of IPF, as well as novel therapies for ILDs. The model is based on intratracheal administration of bleomycin in mice that results in alveolar epithelial damage, alveolar inflammation and fibrosis within a period of 21 days. Consequently, the model allows therapeutic testing of novel agents within a reasonably short period of time (Liu T eta al, Methods Mol Biol. 2017;1627:27-42).
Test Article & Formulations Compound B (Synthetica A/S, Norway) was formulated for subcutaneous administration in a nano-emulsion containing 2 mg/ml Compound B, 2 mg/ml MCT oil (Lipoid), 2 mg/ml Polysorbate 80 (Fluka) and sodium citrate buffer 10 mM (pH 7). The final solution was sterilized by filtration and saturated with Argon 5.0 AGA prior to aliquoting in 10 ml tubes stored at −20° C. till further use. A separate Polysorbate 80- and sodium citrate buffer-based vehicle solution without Compound B and MCT oil was also prepared, sterilized, aliquoted and stored, serving as the subcutaneous vehicle control used in the UUO animal study. Nintedanib (approved and commercialized for IPF under the brand names Ofev/Vargatef) was used as a positive control. The compound was purchased from Chemexpress Co., Ltd. (China) and suspended in 1% methylcellulose.
Six-week-old female C57BL/6J mice were obtained from Japan SLC, Inc. (Japan). Animals were kept in an animal room facility at a temperature of 23±2° C., humidity of 45±10%, under a 12-hour light and dark cycle (light from 8:00 to 20:00). A high pressure of 20±4 Pa was kept in the experimental room to prevent contamination. The animals were housed in TPX cages (CLEA Japan; maximum of 6 mice per cage) and fed with a sterilized normal diet (CE-2; CLEA Japan, Japan) provided ad libitum, being placed in a metal lid on the top of the cage. Sterilized Paper-Clean (Japan SLC) was used for bedding and was replaced once a week. Pure water was provided ad libitum from a water bottle equipped with a rubber stopper and a sipper tube. […]
The viability, clinical signs and behavior were monitored every day. Body weight was recorded daily after the day of starting the BLM administration (Day 0). […]
To quantify lung hydroxyproline content, frozen whole left lung samples were processed by an acid hydrolysis method as follows. […]

SMILES: COC(=O)c1ccc2c(c1)NC(=O)/C2=C(\Nc1ccc(N(C)C(=O)CN2CCN(C)CC2)cc1)c1ccccc1 [Nintedanib]
- Body weight changes at sacrifice (100 mg/kg per os daily Day 7-20, Day 21, % of baseline Day 0, mean ± SD): 103 ± 5%
- Lung Hydroxyproline (100 mg/kg per os daily Day 7-20, Day 21, mean ± SD): 50.6 ± 14.5 μg/ml left lung
- Ashcroft score (Masson's Trichrome, 100 mg/kg per os daily Day 7-20, mean ± SD): 1.6 ± 1.0
- mice found dead before reaching Day 21 (per treatment group of 12, treatment Day 7-20): three out of 12
